Source: ChEMBL document CHEMBL2073976, “Circumvention of multidrug resistance by a newly synthesized quinoline derivative, MS-073” (Cancer Res, 1991)

Biological target: ATP-dependent translocase ABCB1 (Homo sapiens, UniProt P08183)
Assay: TP_TRANSPORTER: increase in VCR intracellular accumulation (VCR: 0.03 uM, MS-073: 3 uM) in K562/ADM cells
Format: functional, cell-based
Details: k562/adr

Chain of ATP-dependent translocase ABCB1 (P08183 whole entry): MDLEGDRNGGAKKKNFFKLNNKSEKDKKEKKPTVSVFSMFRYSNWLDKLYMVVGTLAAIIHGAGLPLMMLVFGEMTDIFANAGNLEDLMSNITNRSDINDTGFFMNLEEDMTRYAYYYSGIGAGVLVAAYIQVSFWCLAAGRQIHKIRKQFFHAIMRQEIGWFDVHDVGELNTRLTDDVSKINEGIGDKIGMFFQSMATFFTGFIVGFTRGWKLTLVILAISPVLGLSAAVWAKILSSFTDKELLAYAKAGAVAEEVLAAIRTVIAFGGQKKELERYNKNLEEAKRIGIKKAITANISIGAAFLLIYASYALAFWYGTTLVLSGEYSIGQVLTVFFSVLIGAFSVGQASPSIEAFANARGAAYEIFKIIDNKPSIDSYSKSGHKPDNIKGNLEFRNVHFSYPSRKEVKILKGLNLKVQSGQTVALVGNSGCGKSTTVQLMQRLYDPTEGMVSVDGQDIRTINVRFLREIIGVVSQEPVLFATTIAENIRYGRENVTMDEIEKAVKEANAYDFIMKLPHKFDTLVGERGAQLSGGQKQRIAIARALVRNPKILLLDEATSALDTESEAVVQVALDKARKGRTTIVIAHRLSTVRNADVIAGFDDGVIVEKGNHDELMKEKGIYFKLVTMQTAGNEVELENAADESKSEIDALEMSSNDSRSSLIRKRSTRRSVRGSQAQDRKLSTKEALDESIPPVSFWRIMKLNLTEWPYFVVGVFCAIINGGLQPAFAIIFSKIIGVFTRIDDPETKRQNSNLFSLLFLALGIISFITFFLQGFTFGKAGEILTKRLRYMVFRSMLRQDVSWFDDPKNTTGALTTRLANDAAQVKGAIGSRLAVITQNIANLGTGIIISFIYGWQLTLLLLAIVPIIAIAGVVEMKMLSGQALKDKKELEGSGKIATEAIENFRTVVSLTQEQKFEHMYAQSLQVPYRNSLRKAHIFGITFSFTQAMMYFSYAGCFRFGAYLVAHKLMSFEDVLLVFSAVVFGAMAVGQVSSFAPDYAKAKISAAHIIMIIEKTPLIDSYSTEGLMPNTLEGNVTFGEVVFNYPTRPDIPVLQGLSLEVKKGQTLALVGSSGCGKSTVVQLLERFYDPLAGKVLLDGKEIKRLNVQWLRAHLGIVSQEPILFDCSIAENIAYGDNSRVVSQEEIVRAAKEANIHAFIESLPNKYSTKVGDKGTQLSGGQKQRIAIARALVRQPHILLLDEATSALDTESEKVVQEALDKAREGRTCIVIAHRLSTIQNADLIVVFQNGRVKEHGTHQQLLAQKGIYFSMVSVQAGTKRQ

Activity: inhibitor [+]
SMILES: OC(COc1cccc2ncccc12)CN1CCN(C2c3ccccc3CCc3ccccc32)CC1 (stereo unspecified)
